Source: patent US20250270201A1, “SUBSTITUTED PYRIMIDINYL HYDRAZIDE COMPOUND AND PREPARATION METHOD AND USE THEREOF” (ARIGENX THERAPEUTICS CO., LTD., priority 2022, published 2025)

Target: T1, AHR (Homo sapiens, UniProt P35869)
T1 construct: A human liver cancer cell line HepG2 endogenously expressing an AHR protein; host or cells: HepG2 stably transfected with a CYP1A1-promoter firefly luciferase reporter
T1 sequence (P35869 11-848): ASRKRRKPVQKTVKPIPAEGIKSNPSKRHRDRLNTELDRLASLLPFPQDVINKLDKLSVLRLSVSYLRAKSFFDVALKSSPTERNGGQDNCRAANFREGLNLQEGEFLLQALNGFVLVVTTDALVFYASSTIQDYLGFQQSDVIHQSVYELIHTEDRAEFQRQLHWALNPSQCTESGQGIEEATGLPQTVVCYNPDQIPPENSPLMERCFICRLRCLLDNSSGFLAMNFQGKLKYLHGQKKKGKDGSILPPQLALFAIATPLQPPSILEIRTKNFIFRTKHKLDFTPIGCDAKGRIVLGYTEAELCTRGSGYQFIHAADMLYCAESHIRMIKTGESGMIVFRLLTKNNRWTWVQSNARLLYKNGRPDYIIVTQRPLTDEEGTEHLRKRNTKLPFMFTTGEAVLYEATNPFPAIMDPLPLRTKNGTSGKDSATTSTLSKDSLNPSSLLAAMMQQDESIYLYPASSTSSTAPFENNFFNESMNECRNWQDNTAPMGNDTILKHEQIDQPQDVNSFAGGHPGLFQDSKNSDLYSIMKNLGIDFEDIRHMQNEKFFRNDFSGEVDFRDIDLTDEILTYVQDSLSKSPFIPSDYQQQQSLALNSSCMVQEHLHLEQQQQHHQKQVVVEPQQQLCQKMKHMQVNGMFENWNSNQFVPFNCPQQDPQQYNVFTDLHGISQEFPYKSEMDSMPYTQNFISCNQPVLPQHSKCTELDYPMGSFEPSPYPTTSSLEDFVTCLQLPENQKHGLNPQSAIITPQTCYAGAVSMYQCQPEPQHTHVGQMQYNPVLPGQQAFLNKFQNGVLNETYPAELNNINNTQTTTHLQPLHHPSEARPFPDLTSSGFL
Test: Antagonistic effect for AHR in HepG2 cells stably transfected with CYP1A1-promoter firefly luciferase reporter
Assay type: cell-based
Details: AHR agonist-stimulated, 24 h compound treatment, average of two replicates
Excerpt: A human liver cancer cell line HepG2 endogenously expressing an AHR protein (provided by the Stem Cell Bank of the Chinese Academy of Sciences) was adopted for testing. The expression of a CYP1A1 gene is regulated by an activity of AHR. After being activated, AHR can bind to a sequence called XRE on a CYP1A1 enhancer and initiate the expression of the CYP1A1 gene. To quantitatively determine an impact of a compound on the activity of AHR, a 1,200 bp (−1,143 to +57) regulatory sequence upstream of a promoter of the CYP1A1 gene was synthesized through gene synthesis and then inserted into a plasmid vector carrying firefly luciferase. The plasmid was then linearized through single enzyme cleavage and then transfected into HepG2 cells through lipofectin transfection (Lipofectamine 3000), and transfected HepG2 cells were screened by puromycin to obtain a stably-expressed cell line. When an antagonistic effect of a compound for AHR was tested, the expression of firefly luciferase was initiated by an AHR agonist (such as L-kynurenine, kynurenic acid, indirubin, TCDD, and 2-(1H-indol-3-ylcarbonyl)-4-thiazolecarboxylic acid methyl ester (ITE)), and cells were treated with the compound at different concentrations. Then, the inhibition on the expression of luciferase by the compound was measured.
Stably-transfected HepG2 cells were sub-cultivated in Minimum Eagle's medium (MEM) at 37° C. and 5% carbon dioxide. In the MEM, 1 mM sodium pyruvate, 2 mM GlutaMax, 1×non- essential amino acids, 10% Australian fetal bovine serum, 100 U/mL penicillin-streptomycin, and 5 μg/mL puromycin were supplemented. Before testing, HepG2 cells were inoculated into a 96-well plate at a density of 5-8×10^4 cells/well and cultivated for 24 h to 48 h to allow a cell confluency of about 90% before a drug treatment (puromycin was not added in a medium). Before the drug treatment, AHR agonist-containing 2×compound solutions at different concentrations were prepared with a same medium, and then a half of a cell culture medium in the 96-well plate was replaced with a 2×compound solution. An AHR agonist solution including only DMSO at a corresponding concentration was set as a negative control group, and CH223191 at a corresponding concentration (commercially available) was set as a positive control group. 2 separate replicate tests were set for each compound (including a positive control and a negative control). 24 h after the compound treatment, HepG2 cells were lysed by a Steady-Glo luciferase detection system of Promega, and a luciferase signal was measured by an InfiniteM1000 Pro microplate reader of Tecan.
In terms of data processing, for each replicate test of each compound, inhibition percentages of a compound at different concentrations on an activity of AHR were calculated sequentially with a signal of a well at a compound concentration of 0 as 100% and a cell signal of an untreated agonist as 0. Corresponding IC50 of a compound was calculated with an average value of data of two replicates according to the formula
tirougn non-nnear ning, where y represents an inhibition percentage and x represents a concentration of a corresponding compound.
IC50 for each compound was shown in Table 2, where A indicates IC50≤500 nM, B indicates 500 nM<IC50≤1.0 μM, C indicates 1 μM<IC50≤5.0 μM, and D indicates IC50>5.0 μM.

IC50 [nM] | Structure (SMILES)
≤ 500 | CC1COCC(CO)N1NC(=O)c1cc(-c2ccc(C(F)(F)F)cc2)nc(-c2cccnc2)n1 (centres unmarked) [Compound 12]
≤ 500 | C[C@H]1COCCN1NC(=O)c1cc(-c2ccc(OC(F)(F)F)cc2)nc(-c2cccnc2)n1 [Compound 6]
500 to 1000 | Cc1ccc(-c2cc(C(=O)NN(C(C)C)C(C)CO)nc(-c3cccnc3)n2)cn1 (centres unmarked) [Compound 50]
≤ 500 | CC(=O)N(NC(=O)c1cc(-c2ccc(C(F)(F)F)cc2)nc(-c2cccnc2)n1)C(C)C [Compound 66]
500 to 1000 | CC(C)N(NC(=O)c1cc(-c2ccc(O)cc2)nc(-c2cccnc2)n1)C(C)CO (centres unmarked) [Compound 51]
≤ 500 | CCN(NC(=O)c1cc(-c2ccc(C(F)(F)F)cc2)nc(-c2cccs2)n1)C(C)CO (centres unmarked) [Compound 56]
≤ 500 | O=C(NN1CCOCC1CO)c1cc(-c2ccc(C(F)(F)F)cc2)nc(-c2cccnc2)n1 (centres unmarked) [Compound 23]
≤ 500 | C[C@H]1COCCN1NC(=O)c1cc(-c2ccc(Cl)cc2)nc(-c2cnn(C)c2)n1 [Compound 41]
≤ 500 | CC1(C)COCC(=O)N1NC(=O)c1cc(-c2ccc(C(F)(F)F)cc2)nc(-c2cccnc2)n1 [Compound 30]
≤ 500 | CC(C)N(CCO)NC(=O)c1cc(-c2ccc(Cl)cc2)nc(-c2cccnc2)n1 [Compound 19]
≤ 500 | CC(C)NNC(=O)c1cc(-c2ccc(C(F)(F)F)cc2)nc(-c2cccnc2)n1 [Compound 10]
500 to 1000 | CCN(NC(=O)c1cc(-c2ccc(C(F)(F)F)cc2)nc(-c2cccc(C)c2)n1)C(C)CO (centres unmarked) [Compound 53]
≤ 500 | C[C@H]1COCCN1NC(=O)c1cc(-c2ccc(OC(F)(F)F)cc2)nc(-c2cnn(C)c2)n1 [Compound 15]
≤ 500 | CC1COCC(C)N1NC(=O)c1cc(-c2ccc(OC(F)(F)F)cc2)nc(-c2cccnc2)n1 (centres unmarked) [Compound 3]
≤ 500 | CC(=O)N(NC(=O)c1cc(-c2ccc(C(F)(F)F)cc2)nc(-c2cnn(C)c2)n1)c1cnccn1 [Compound 34]
500 to 1000 | CC(C)N(NC(=O)c1cc(-c2ccc(F)cc2)nc(-c2cccnc2)n1)C(C)CO (centres unmarked) [Compound 59]
≤ 500 | O=C(NN1CCOC[C@H]1CO)c1cc(-c2ccc(C(F)(F)F)cc2)nc(-c2cccnc2)n1 [Compound 42]
